“Also recorded” adds a separate entry of the source.
What was measured:
[1] = tested on: patients with type 2 diabetes; details: orally administered, FIELD and ACCORD; cited from earlier work
[2] = tested on: PPARα; details: cited from earlier work
[3] = tested on: PPAR subtypes; details: cited from earlier work
[4] = biological target: T1, STING (Homo sapiens, UniProt Q86WV6, G230A/H232R/R293Q/R71H); assay: IRF-Lucia Reporter STING Inhibition Assay (THP-1 Lucia ISG cells); format: cell-based; details: 1 μM 2,3-cGAMP, 20 hours
T1 construct: THP-1 Lucia ISG cells (InvivoGen, thpl-isg); host or cells: THP-1 Lucia ISG cells
Experimental: IRF-Lucia Reporter STING Inhibition Assay. […] Cells were incubated at 37° C. in a 5% CO2 atmosphere with varying concentrations of test compound for 1.5 hours, followed by treatment with 1 μM 2,3-cGAMP (InvivoGen, tlrl-nacga23-02) and incubated for 20 hours. A 20 μL aliquot of cell suspension was added to 50 μL. QUANTI-Luc™ reagent (InvivoGen, rep-qlc4lg2), and the resulting luminescence is measured by a GloMax Explorer (Promega) with a 0.1 second read time.

[5] = tested on: 661 W cells; details: 12.5 μM, 2 hours, H2O2 500 μM, 24 hours, n=6
[6] = tested on: 661 W cells; assay: 4-HNE-induced ROS production in 661 W cells; details: 12.5 μM, 2 hours, 4-HNE 10 μM, 24 hours, n=6
[7] = tested on: 661 W cells; assay: Viability of 661 W cells after H2O2 (trypan blue exclusion)
[8] = tested on: HMC3 cells; details: 12.5 μM, 200 μM TBHP
[9] = tested on: 661 W cells; assay: Viability of 661 W cells after 4-HNE (trypan blue exclusion)

T1 sequence (Q86WV6 whole entry R71H/G230A/H232R/R293Q): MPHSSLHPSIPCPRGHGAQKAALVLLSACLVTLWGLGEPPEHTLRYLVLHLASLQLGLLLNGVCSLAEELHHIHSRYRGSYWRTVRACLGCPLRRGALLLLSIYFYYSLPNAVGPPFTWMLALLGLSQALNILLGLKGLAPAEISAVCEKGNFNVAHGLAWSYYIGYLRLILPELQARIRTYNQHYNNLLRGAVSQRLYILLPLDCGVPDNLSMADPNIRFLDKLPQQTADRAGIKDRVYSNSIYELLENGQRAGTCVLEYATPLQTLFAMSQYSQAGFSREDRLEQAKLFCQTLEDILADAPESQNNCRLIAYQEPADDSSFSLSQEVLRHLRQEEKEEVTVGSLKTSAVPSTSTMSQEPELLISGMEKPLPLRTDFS

% STING INHIBITION, % at 12.5 μm [4]	% STING INHIBITION, % at 25 μm [4]	% STING INHIBITION, % at 50 μm [4]	SMILES	further results
9%	31%	53%	COc1ccc(NCc2ccc(-c3ccc(F)cc3)cc2)cc1C(=O)O [Example 46, 5-(((4′-fluoro-[1,1′-biphenyl]-4-yl)methyl)amino)-2-methoxybenzoic acid]	
0%	0%	0%	COc1ccc(NCc2ccc(-c3ccc(F)cc3)cc2)cc1C#N [Example 43, 5-(((4′-Fluoro-[1,1′-biphenyl]-4-yl)methyl)amino)-2-methoxybenzonitrile]	
0%	12%	81%	Cc1cc(-c2ccc(CNc3ccc(O)c(C(=O)O)c3)cc2)ccc1F [Example 44, 5-(((4′-Fluoro-3′-methyl-[1,1′-biphenyl]-4-yl)methyl)amino)-2-hydroxybenzoic acid]	
40%	80%	99%	N#Cc1cc(NCc2ccc(-c3ccc(F)cc3)cc2)ccc1O [Example 47, 5-(((4′-Fluoro-[1,1′-biphenyl]-4-yl)methyl)amino)-2-hydroxybenzonitrile]	

Continued, molecule first:

SMILES	% STING INHIBITION, % at 12.5 μm [4]	% STING INHIBITION, % at 25 μm [4]	% STING INHIBITION, % at 50 μm [4]	further results
CC(C)OC(=O)C(C)(C)Oc1ccc(C(=O)c2ccc(Cl)cc2)cc1 [fenofibrate]				progression of DR and other microvascular endpoints [1]: significantly reduced the progression of DR and other microvascular endpoints; affinity for PPARα [2]: low affinity for PPARα; selectivity among PPAR subtypes [3]: lack of selectivity among PPAR subtypes
COc1ccc(-c2ccc(CNc3ccc(O)c(C(=O)O)c3)cc2)cc1 [Example 33]	0%	0%	0%	
CC(C)(Oc1ccc(C(=O)c2ccc(Cl)cc2)cc1)C(=O)O [fenofibric acid]				agonism of PPARα by major metabolite ([2]; major metabolite of fenofibrate): agonism of PPARα
O=C(O)c1cc(NCc2ccc(-c3ccc(O)cc3)cc2)ccc1O [Example 35, 2-Hydroxy-5-(((4′-hydroxy-[1,1′-biphenyl]-4-yl)methyl)amino)benzoic acid]	0%	0%	0%	
O=C(O)c1cc(NCc2ccc(-c3ccc(F)c([N+](=O)[O-])c3)cc2)ccc1O [Example 38, 5-(((4′-Fluoro-3′-nitro-[1,1′-biphenyl]-4-yl)methyl)amino)-2-hydroxybenzoic acid]	0%	39%	90%	
COc1cc(F)ccc1-c1ccc(CNc2ccc(O)c(C(=O)O)c2)cc1 [Example 39, 5-(((4′-Fluoro-2′-methoxy-[1,1′-biphenyl]-4-yl)methyl)amino)-2-hydroxybenzoic acid]	0%	0%	0%	
O=C(Nc1ccc(O)c(NS(=O)(=O)c2ccc(F)cc2)c1)c1ccc(-c2ccccc2)cc1 [SN-011]				H2O2-induced ROS production [5]: the difference between SN011 and Example 17 is less pronounced; 4-HNE-induced production of ROS [6]: the difference between SN011 and Example 17 is less pronounced; cell viability after H2O2 ([7]; 1 μM and 10 μM, H2O2 500 μM, 24 hours, n=3): fails to show a dose-response improvement between 1 μM and 10 μM; also recorded: Improvement in cell viability; cell viability after H2O2 ([7]; 1 μM, SN-011 vs Example 31): no significant difference; TBHP-induced production of ROS (oxidative stress) [8]: greater reduction in oxidative stress than PPARα agonism (Example 31 (BH400); cell viability after 4-HNE ([9]; 1 μM and 10 μM, 4-HNE 10 μM, 24 hr, n=3): fails to show a dose-response improvement between 1 μM and 10 μM; also recorded: Improvement in cell viability; cell viability after 4-HNE ([9]; 1 μM, SN-011 vs Example 31): no significant difference
CS(=O)(=O)c1ccc(-c2ccc(CNc3ccc(O)c(C(=O)O)c3)cc2)cc1 [Example 34, 2-Hydroxy-5-(((4′-(methylsulfonyl)-[1,1′-biphenyl]-4-yl)methyl)amino)benzoic acid]	0%	0%	0%	
O=C(O)c1cc(NCc2ccc(-c3ccc(C(F)(F)F)cc3)cc2)ccc1O [Example 32, 2-hydroxy-5-(((4′-(trifluoromethyl)-[1,1′-biphenyl]-4-yl)methyl)amino)benzoic acid]	28%	43%	64%	
CC(C)(C)c1ccc(-c2ccc(CNc3ccc(O)c(C(=O)O)c3)cc2)cc1 [Example 36, 5-(((4′-(tert-Butyl)-[1,1′-biphenyl]-4-yl)methyl)amino)-2-hydroxybenzoic acid]	0%	0%	>95%	

— US20260297016A1, “THERAPEUTIC COMPOUNDS” (REGENTS OF THE UNIVERSITY OF MINNESOTA, priority 2023, published 2026)
